Where “and” joins values, the source holds several entries; their conditions need not be identical. Equal values may be shown once.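 Exposure lasted 48 hours, with cells grown in 96-well plates and compounds tested at five concentrations. GI50 = concentration required for 50% inhibition of growth. TGI is the concentration that stops growth completely.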
tested on: SK-MEL-28 melanoma; experiment: NCI anticancer screen, dose series, 48 h

| SMILES | TGI | GI50 |
| --- | --- | --- |
| CCC(=O)CC(=O)CCC(=O)Nc1cc(C)ccc1C | > 100 µM |  |
| C(=NCCN1CCOCC1)=NC1CCCCC1 | > 100 µM |  |
| CC[As](CC)SC[C@H](C)C(=O)N1CCC[C@H]1C(=O)O | 0.212 µM | 0.055 µM |
| NC(N)=N/N=C/c1c(-c2ccsc2)nc2sccn12 | 27.6 µM | 14.2 µM |
| Oc1ccc(Nc2ncnc3c2sc2ncccc23)cc1 | > 100 µM | 3.75 µM |
| CC(=O)OC1COC(Oc2c(C)c3c4c(c2O)[C@@H](C)CC[C@@H]4[C@@H](C)C[C@H]3C=C(C)C)C(O)C1OC(C)=O (some centres undefined) | 56.2 µM | 25.4 µM |
| S=C(Nc1ccc(Cl)cc1)Nc1ccc(-c2nc3ccccc3s2)cc1 | 44.2 µM | 19.1 µM |
| O=c1/c(=C/c2ccccc2[N+](=O)[O-])sc2nnc(-c3ccco3)n12 | 57 µM |  |
| CC(=O)CCn1ncc(Cl)c(Cl)c1=O | 27.2 µM |  |
| CO/N=C(/C)c1cccc(Nc2cc(-n3nnc4ccccc43)nc3ccccc23)c1 | > 100 µM | > 100 µM |
| COc1cc(C(=O)N2CCN(C=O)C2=S)cc(OC)c1OC | > 100 µM | 29.5 µM |
| CN1CC(=O)N2Cc3ccccc3-n3cccc3C2C1 (centres undefined) | > 100 µM |  |
| NC(=S)N/N=C/C(=O)O | > 100 µM | > 100 µM |
| Cc1cn2c(=O)c3ncn(C4OC(CO)C(O)C4O)c3n(C)c2n1 (centres undefined) | > 100 µM |  |
| CC/C=C\C[C@H](O)C/C=C1/C(=O)C(Cl)=C[C@@H]1C/C=C\CCCC(=O)OC | 1.31 µM | 0.432 µM |

tested on: SK-MEL-5 melanoma; experiment: NCI anticancer screen, dose series, 48 h

| SMILES | GI50 | TGI |
| --- | --- | --- |
| Clc1ccc2c(c1)[nH]c1c2nc2ccccn21 | 39.9 µM and 16.4 µM | > 100 µM and 30.2 µM |
| CCOC(=O)c1cnc2c(ccc3[nH]n(C)nc32)c1=O |  | > 100 µM |
| COc1ccc2occ(CCC(=O)O)c2c1 |  | > 100 µM |
| COC(=O)C(C(=O)c1ccccc1)C(C(=O)C(=O)Nc1ccc(OC)cc1OC)C(=O)C(=O)c1ccc(C)cc1 (centres undefined) |  | > 100 µM |
| CC1(C)COC(C2(C)C(=O)C=C(c3ccccc3)c3ccccc32)=N1 (centres undefined) |  | > 100 µM |
| O=C(Nc1ccn(CCO)c(=O)n1)c1ccccc1 |  | > 100 µM |
| O=C1CCC2(c3ccc(Cl)cc3)Nc3ncccc3N12 (centres undefined) |  | > 100 µM |
| C#CCOc1cccc(-c2ncc3cc(NC(=O)CCl)ccc3n2)c1 | 1.33 µM | 2.62 µM |
| CC12C/C(=C\c3ccccc3)C(=O)C3C1CCCC32 |  | > 100 µM |
| OC(CC1SCCCS1)c1ccccc1 (centres undefined) |  | > 100 µM |
| CCCCOC(=O)CNC(=O)OC/C=C/C#CC#C/C=C/COC(=O)NCC(=O)OCCCC | > 100 µM | > 100 µM |
| O=C1c2ccccc2C(=O)N1CCn1ccc(NC(c2ccccc2)(c2ccccc2)c2ccccc2)nc1=O |  | 31.2 µM |
| O=CCC1CCCCC1 |  | > 100 µM |
| CCC12CCCN(Cc3ccccc3)C1c1c(n(C)c3ccccc13)CC2 (centres undefined) |  | 184 µM |
| COc1cc(Nc2ncccc2C(=O)NCc2cn(Cc3cccc(Oc4ccccc4)c3)nn2)cc(OC)c1 | 3.11 µM | > 100 µM |
| Nc1ccc([N+](=O)[O-])cc1N=C/C=C/c1ccccc1 | 10.7 µM | 48.8 µM |
| Cc1cc(Nc2ccc(NC(=O)c3ccc(Nc4ccnc5ccccc45)cc3)cc2)nc(N)n1 | 5.23 µM | 49.9 µM |
| CCN(CC)CCCN1CCc2c([nH]c3ccccc23)C1c1cccnc1 (centres undefined) |  | > 100 µM |
| COC(=O)C1c2cc3c(cc2C(OC2OC(C)C(OC)C(C)(OC)C2OC)CC1(C)O)C(=O)c1c(O)cc2c(c1C3=O)OC1OC2(C)C(O)C([N+](C)(C)[O-])C1O (centres undefined) |  | 0.352 µM |
| Nc1nc(Cl)cc(NCCCCCCCCNc2cc(Cl)nc(N)n2)n1 |  | 13 µM |
| CC(C)N(C(=O)C12C3C4C1C1C4(C#N)C3C12C#N)C(C)C (centres undefined) |  | > 100 µM |

| SMILES | GI50 | TGI |
| --- | --- | --- |
| O=C1CCC(Cl)=CC2CCCN12 (centres undefined) |  | > 100 µM |
| COc1ccc(/C=C\[N+](=O)[O-])cc1OC | 3.72 µM | 14.4 µM |
| c1ccc2cc(-c3cc4ccccc4s3)ccc2c1 |  | > 100 µM |
| Cc1ccc(S(=O)(=O)Nc2ccccc2C=O)cc1 |  | 25.1 µM |
| Cc1ccc(S(=O)(=O)N(C=O)N=C2CCN(Cc3ccccc3)CC2)cc1 |  | > 100 µM |
| CC(C)C(CCl)NC(=O)c1cccc(C(=O)N[C@H](CCl)C(C)C)n1 (stereo in doubt) |  | > 100 µM |
| CCC(=O)CC(=O)CCC(=O)Nc1cc(C)ccc1C |  | > 100 µM |
| C(=NCCN1CCOCC1)=NC1CCCCC1 |  | > 100 µM |
| CC[As](CC)SC[C@H](C)C(=O)N1CCC[C@H]1C(=O)O | 0.054 µM | 0.151 µM |
| NC(N)=N/N=C/c1c(-c2ccsc2)nc2sccn12 | 14.4 µM | 28.8 µM |
| Oc1ccc(Nc2ncnc3c2sc2ncccc23)cc1 | 0.047 µM | > 100 µM |
| CC(=O)OC1COC(Oc2c(C)c3c4c(c2O)[C@@H](C)CC[C@@H]4[C@@H](C)C[C@H]3C=C(C)C)C(O)C1OC(C)=O (some centres undefined) | 24.7 µM | 52.7 µM |
| S=C(Nc1ccc(Cl)cc1)Nc1ccc(-c2nc3ccccc3s2)cc1 | 11 µM | 22.9 µM |
| O=c1/c(=C/c2ccccc2[N+](=O)[O-])sc2nnc(-c3ccco3)n12 |  | 34.4 µM |
| CC(=O)CCn1ncc(Cl)c(Cl)c1=O |  | 33.5 µM |
| CO/N=C(/C)c1cccc(Nc2cc(-n3nnc4ccccc43)nc3ccccc23)c1 | 14.4 µM | 32.5 µM |
| CN1CC(=O)N2Cc3ccccc3-n3cccc3C2C1 (centres undefined) |  | > 100 µM |
| NC(=S)N/N=C/C(=O)O | > 100 µM | > 100 µM |
| Cc1cn2c(=O)c3ncn(C4OC(CO)C(O)C4O)c3n(C)c2n1 (centres undefined) |  | > 100 µM |
| CC/C=C\C[C@H](O)C/C=C1/C(=O)C(Cl)=C[C@@H]1C/C=C\CCCC(=O)OC | 0.489 µM | 1.77 µM |

tested on: SR leukemia; experiment: NCI anticancer screen, dose series, 48 h

| SMILES | TGI | GI50 |
| --- | --- | --- |
| Clc1ccc2c(c1)[nH]c1c2nc2ccccn21 | > 100 µM |  |
| CCOC(=O)c1cnc2c(ccc3[nH]n(C)nc32)c1=O | > 100 µM |  |
| NC(=S)N/N=C(\CC1OC(=O)c2ccccc21)c1ccc(Cl)cc1 (centres undefined) | > 100 µM |  |
| COC(=O)C(C(=O)c1ccccc1)C(C(=O)C(=O)Nc1ccc(OC)cc1OC)C(=O)C(=O)c1ccc(C)cc1 (centres undefined) | > 100 µM |  |
| CC1(C)COC(C2(C)C(=O)C=C(c3ccccc3)c3ccccc32)=N1 (centres undefined) | > 100 µM |  |
| O=C(Nc1ccn(CCO)c(=O)n1)c1ccccc1 | > 100 µM |  |
| CC12C/C(=C\c3ccccc3)C(=O)C3C1CCCC32 | > 100 µM |  |
| CCCCOC(=O)CNC(=O)OC/C=C/C#CC#C/C=C/COC(=O)NCC(=O)OCCCC | > 10 µM |  |
| CCC12CCCN(Cc3ccccc3)C1c1c(n(C)c3ccccc13)CC2 (centres undefined) | > 253 µM |  |
| Nc1ccc([N+](=O)[O-])cc1N=C/C=C/c1ccccc1 | > 100 µM | 3.48 µM |
| CCN(CC)CCCN1CCc2c([nH]c3ccccc23)C1c1cccnc1 (centres undefined) | > 100 µM |  |
| Nc1nc(Cl)cc(NCCCCCCCCNc2cc(Cl)nc(N)n2)n1 | 96.8 µM |  |
| COc1ccc(/C=C\[N+](=O)[O-])cc1OC | 7.99 µM | 2.38 µM |
| c1ccc2cc(-c3cc4ccccc4s3)ccc2c1 | > 100 µM |  |
| Cc1ccc(S(=O)(=O)Nc2ccccc2C=O)cc1 | 86.3 µM |  |
| Cc1ccc(S(=O)(=O)N(C=O)N=C2CCN(Cc3ccccc3)CC2)cc1 | > 100 µM |  |
| CC(C)C(CCl)NC(=O)c1cccc(C(=O)N[C@H](CCl)C(C)C)n1 (stereo in doubt) | > 100 µM |  |
| CCC(=O)CC(=O)CCC(=O)Nc1cc(C)ccc1C | > 100 µM |  |
| C(=NCCN1CCOCC1)=NC1CCCCC1 | > 100 µM |  |
| CC[As](CC)SC[C@H](C)C(=O)N1CCC[C@H]1C(=O)O | 0.0102 µM | < 0.01 µM |
| S=C(Nc1ccc(Cl)cc1)Nc1ccc(-c2nc3ccccc3s2)cc1 | 27.4 µM | 4.47 µM |
| O=c1/c(=C/c2ccccc2[N+](=O)[O-])sc2nnc(-c3ccco3)n12 | 70.9 µM |  |
| CC(=O)CCn1ncc(Cl)c(Cl)c1=O | 31.5 µM |  |
| NC(=S)N/N=C/C(=O)O | > 100 µM | > 100 µM |

— PubChem BioAssay (NCI)
